Patent publication EP2646421B1, “7-NITRO-5-PHENYL-1-(PYRROLIDIN-1-YLMETHYL)-1H-BENZO[E][1,4]DIAZEPIN-2(3H)-ONE AND OTHER BENZODIAZEPINE DERIVATIVES” (Pignataro, Giuseppe, priority 2010, dated 2012)
Entries after “also recorded” stand apart in the source; their conditions may differ.

Tests used:
NCX2 [1] = target: T1, NCX2 (Rattus norvegicus, UniProt P48768); test: Patch-clamp electrophysiology (whole-cell NCX currents), BHK-NCX2 cells; format: cell-based; details: 10 nM, 10 minutes
T1 construct: expressed in transfected cells
T1 sequence (P48768 21-921): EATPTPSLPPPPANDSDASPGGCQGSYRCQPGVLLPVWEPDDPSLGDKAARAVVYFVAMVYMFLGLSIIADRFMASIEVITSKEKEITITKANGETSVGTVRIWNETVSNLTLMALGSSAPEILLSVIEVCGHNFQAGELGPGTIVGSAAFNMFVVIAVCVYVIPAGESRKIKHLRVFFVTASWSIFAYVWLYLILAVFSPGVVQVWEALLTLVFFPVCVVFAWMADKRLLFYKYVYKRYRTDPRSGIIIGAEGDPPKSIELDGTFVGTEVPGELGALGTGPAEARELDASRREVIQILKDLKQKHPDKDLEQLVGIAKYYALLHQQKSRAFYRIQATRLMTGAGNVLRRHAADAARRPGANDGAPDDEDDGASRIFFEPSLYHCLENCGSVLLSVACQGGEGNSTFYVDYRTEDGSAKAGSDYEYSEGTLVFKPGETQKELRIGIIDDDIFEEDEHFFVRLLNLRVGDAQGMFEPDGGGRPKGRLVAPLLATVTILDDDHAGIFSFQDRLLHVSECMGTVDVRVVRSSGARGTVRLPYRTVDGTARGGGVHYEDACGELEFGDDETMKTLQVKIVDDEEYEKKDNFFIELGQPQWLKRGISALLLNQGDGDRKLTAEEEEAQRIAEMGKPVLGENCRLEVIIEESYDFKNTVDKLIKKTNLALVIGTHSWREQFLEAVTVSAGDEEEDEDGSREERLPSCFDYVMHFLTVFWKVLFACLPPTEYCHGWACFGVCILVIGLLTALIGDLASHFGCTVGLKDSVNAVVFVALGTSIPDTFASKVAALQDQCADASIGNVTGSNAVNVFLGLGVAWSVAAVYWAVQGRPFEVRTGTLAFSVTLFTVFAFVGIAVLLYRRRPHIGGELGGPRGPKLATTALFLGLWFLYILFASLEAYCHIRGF
Description: (§1) To further investigate the effects of this compound on the Na^+/Ca^2+ exchanger activity, we performed electrophysiological experiments on BHK cells stably transfected with each of NCX isoforms (named BHK-NCX1, BHK-NCX2 and BHK-NCX3).
(§2) The activity of NCX was established by means of three different subclones of baby hamsted kidney (BHK) cells that were stably transfected with one of each NCX isoforms, named BHK-NCX1, BHK-NCX2 and BHK-NCX3. These cell lines were grown on plastic dishes in a mix of DMEM and Ham's F12 media (1:1) (Gibco, Invitrogen, MI, Italy) supplemented with 5% fetal bovine serum, 100 U/ml penicillin, and 100 µg/ml streptomycin (Sigma, St. Louis, Missouri, USA). Cells were cultured in a humidified 5% CO2 atmosphere and at the temperature of 37°C.
(§3) NCX currents (/NCX) was recorded from BHK wild-type and BHK stably transfected cells with NCX1, NCX2, and NCX3 and all each mutated of single isoforrms by patch-clamp technique in whole-cell configuration. […] Data were acquired and analyzed by use of pClamp software (version 9.0, Molecular Devices). In brief, /NCX was recorded starting from a holding potential of -60 mV up to a short-step depolarization at +60 mV (60 ms) (He et al., 2003; Xiao et al., 2004). […] The current recorded in the descending portion of the ramp (from +60 to -120 mV) was used to plot the current-voltage (I-V) relation curve. […]

NCX1 = target: T2, NCX1 (Canis lupus familiaris, UniProt P23685); test: Patch-clamp electrophysiology (whole-cell NCX currents), BHK-NCX1 cells; format: cell-based; details: 10 nM, 10 minutes
T2 construct: expressed in transfected cells
T2 sequence (P23685 33-970): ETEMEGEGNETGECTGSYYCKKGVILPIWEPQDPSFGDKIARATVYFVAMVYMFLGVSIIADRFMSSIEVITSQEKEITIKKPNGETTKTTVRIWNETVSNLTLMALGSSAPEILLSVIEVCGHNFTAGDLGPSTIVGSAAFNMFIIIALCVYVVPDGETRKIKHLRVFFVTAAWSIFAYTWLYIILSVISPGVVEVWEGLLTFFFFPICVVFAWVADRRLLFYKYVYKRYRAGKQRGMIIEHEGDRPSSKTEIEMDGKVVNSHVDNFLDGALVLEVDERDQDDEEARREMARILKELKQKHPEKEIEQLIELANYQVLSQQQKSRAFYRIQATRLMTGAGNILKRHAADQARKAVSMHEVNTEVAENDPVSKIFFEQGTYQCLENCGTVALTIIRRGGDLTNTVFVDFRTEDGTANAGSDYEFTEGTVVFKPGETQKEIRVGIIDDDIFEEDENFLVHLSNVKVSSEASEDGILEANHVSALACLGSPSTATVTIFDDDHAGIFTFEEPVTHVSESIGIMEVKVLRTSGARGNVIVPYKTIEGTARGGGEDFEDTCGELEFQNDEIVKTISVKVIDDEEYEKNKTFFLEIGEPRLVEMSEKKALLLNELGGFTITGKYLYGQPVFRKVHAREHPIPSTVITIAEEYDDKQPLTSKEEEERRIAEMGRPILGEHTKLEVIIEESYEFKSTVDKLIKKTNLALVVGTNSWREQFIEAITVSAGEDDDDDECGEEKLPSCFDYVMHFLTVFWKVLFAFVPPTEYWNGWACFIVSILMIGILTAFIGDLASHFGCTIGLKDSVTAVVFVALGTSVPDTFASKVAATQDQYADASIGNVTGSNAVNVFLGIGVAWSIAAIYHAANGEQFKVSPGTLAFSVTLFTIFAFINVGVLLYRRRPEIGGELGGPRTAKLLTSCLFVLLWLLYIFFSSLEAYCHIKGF
Description: as §1, §2, §3

NCX2 [2] = target: T1, NCX2; test: 45Ca2+ radiotracer fluxes (efflux/influx) in BHK-NCX2 cells; format: cell-based
Description: as §2
The activity of the Na^+/Ca^2+ exchanger was measured by means of ^45Ca^2+ radiotracer variations in the cytoplasm of cells exposed to a protocol stimulating the forward or the reverse mode of the antiporter. The BHK cells expressing each mutated or non-mutated NCX isoform were cultured in 12-well dishes and incubated in 145 mM NaCl for 10 minutes and then in a medium containing only 145 mM N-Methyl D-glucamine (NMDG) and 10 µM of ^45Ca^2+. This rapid substitution of the medium from a high level of Na^+ to another one without Na^+ allow the ^45Ca^2+ influx (reverse mode). Before the medium substitution cells was incubated with 1 mM ouabain, a Na^+/K^+ pump inhibitor, and 10 µM monensin, a ionophore for extracellular Na^+. After 30 seconds incubation, cells were washed with an ice-cold solution containing 2 mM La^3+ to stop ^45Ca^2+ uptake. The medium was removed and cells were subsequently lysed with 0.1 N NaOH and aliquots were taken to determine radioactivity and protein content.
In order to measure NCX activity in the forward mode, cells were firstly loaded with ^45Ca^2+ and subsequently exposed to a chemical protocol to stimulate the efflux of the radiotracer in the extracellular medium. In particular, cells were loaded with ^45Ca^2+ by using a solution containing 1 µM ionomycin, 145 mM Na^+ and ^45Ca^2+. Next, cells were exposed to a Ca^2+-free solution containing 2 mM EGTA. One µM thapsigargin, a Ca^2+-ATPase inhibitor, was present in both solutions in order to prevent ^45Ca^2+ influx in intracellular organelles. After 60 second, cells were lysed with […] NaOH and aliquots were taken to determine cytoplasmatic radioactivity.
Cells were incubated for 30 minutes with different neurounina-1 concentrations.

BHK cells = test: Cell viability by fluorescein diacetate / propidium iodide staining; format: cell-based, hamster; details: 10 µM, 24 hours
Description: Fluorescein diacetate (FDA) is an apolar ester that could cross plasmamembrane. […] The polar compound propidium-iodide (PI) can not cross an intact plasmamembrane, so this is a good marker of necrotic cells. Once PI enters into the cell, this compound interact with nuclear DNA and give a fluorescent red light. Consequently, in the same cellular population, it is possible to discriminate live cells from dead cells, because the last group are PI-positive. In PI/PDA experiments, BHK cells were firstly treated with 10 µM neurounina-1 for 24 hours and then incubated for 3 minutes, at 22°C, in a PBS solution containing fluorescein diacetate (FDA; Sigma) and propidium iodide (PI, Calbiochem, San Diego, CA, U.S.A.), at the concentrations of di 36 µM e 7 µM, respectively. At the end of the incubation, cells were washed with PBS and observed at the microscope.

With `O=C1CN=C(c2ccccc2)c2cc([N+](=O)[O-])ccc2N1CN1CCCC1` [neurounina-1, 7-nitro-5-phenyl-1-(pyrrolidin-1-ylmethyl)-1H-benzo[e][1,4]diazepin-2(3H)-one] the “increased forward and reverse activity of NCX2” value (NCX2 [1]) was 30%, the “increased forward and reverse activity of NCX1” value (NCX1) was 60% and the “increase of forward mode of NCX2 activity” value (NCX2 [2]; 45Ca2+ radiotracer, forward mode) was 30%. The “increase of reverse mode NCX2 activity” value (NCX2 [2]; 45Ca2+ radiotracer, reverse mode) was 40%, the EC50 (NCX2 [2]; EC50 NCX2, reverse mode, 45Ca2+ radiotracer, reverse mode) was 2.7 nM and the EC50 (NCX2 [2]; EC50 for NCX2, forward mode, 45Ca2+ radiotracer, forward mode) was 1.7 nM. For the same compound, the EC50 (NCX2 [2]; EC50 su NCX2, from the functional assays (summary)) was 1 to 2 nM, the NCX2 activity (NCX2 [2]; forward and reverse mode, patch clamp, Fura-2 microfluorimetry and 45Ca2+ fluxes (summary)) was “increases, in a dose-dependent manner” and the cell viability (BHK cells) was “did not show any toxic effect; also recorded: did not affect”.
